Test systems include UO-31 renal; NCI-H226 lung; 786-0 renal; SNB-75 CNS; HOP-92 NSCLC; U251 CNS; HCT-15 colon; K-562 leukemia; UACC-62 melanoma; SR leukemia.
Holding throughout (experiment): NCI-60 cell line screen, 48 h

We go through twelve compounds from PubChem BioAssay (NCI).

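Each compound was tested at five concentrations against cells in 96-well plates for 48 hours. GI50 = concentration required for 50% inhibition of growth. TGI denotes the concentration required for complete inhibition of growth.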 Some results are limits rather than exact numbers.

In the case of `C[C@]12CCC3[C@@H](CC[C@@H]4c5nonc5CC[C@]34C)C1C/C(=N/O)C2=O` (stereo partly specified), the TGI in the test with UO-31 renal is over 100 µM; with NCI-H226 lung, over 100 µM; in the test on 786-0 renal it was over 100 µM; in the test with SNB-75 CNS it was 2.98 µM; in the test on HOP-92 NSCLC, over 100 µM; in the test with U251 CNS, over 100 µM. For the same compound, the TGI in the test with HCT-15 colon, in the test on K-562 leukemia and in the test on UACC-62 melanoma was over 100 µM each time.
Consider `CCOC(=O)NC(=O)c1cn(CCCCCCOC(=O)NCCCCCCNC(=O)OCCCCCCn2cc(C(=O)NC(=O)OCC)c(=O)[nH]c2=O)c(=O)[nH]c1=O`, for which the TGI in the test on UO-31 renal, in the test with NCI-H226 lung, with 786-0 renal, with SNB-75 CNS, in the test on U251 CNS and in the test with HCT-15 colon was over 100 µM throughout. The TGI with K-562 leukemia and in the test with UACC-62 melanoma was over 100 µM each time.
As to `O=C(Nc1cccc(NC(=O)Nc2cc(C(F)(F)F)ccc2Cl)c1)Nc1cc(C(F)(F)F)ccc1Cl`, the GI50 with UO-31 renal is 2.49 µM; in the test with NCI-H226 lung it was 1.85 µM; with 786-0 renal, 4.93 µM; with SNB-75 CNS, 1.56 µM; with HOP-92 NSCLC, 1.99 µM; in the test on U251 CNS, 1.93 µM. Besides, the GI50 in the test on HCT-15 colon was 0.566 µM; in the test with K-562 leukemia, 2.17 µM; in the test on UACC-62 melanoma it was 2.35 µM. The TGI is 14.7 µM with UO-31 renal; 9.28 µM with NCI-H226 lung; over 100 µM with 786-0 renal; 4.51 µM in the test with SNB-75 CNS; 5.06 µM in the test on HOP-92 NSCLC; 7.91 µM in the test on U251 CNS. Further, the TGI was over 100 µM in the test with HCT-15 colon, 44.7 µM in the test with K-562 leukemia and 16.8 µM in the test with UACC-62 melanoma.
In the case of `CN1c2ccccc2N(C)C23N(C)c4ccccc4N(C)C12N(C)c1ccccc1N3C` (stereo unspecified), the TGI with UO-31 renal, with NCI-H226 lung, in the test with 786-0 renal, with SNB-75 CNS, in the test with HOP-92 NSCLC and in the test with U251 CNS was over 100 µM each time. Also, the TGI in the test with HCT-15 colon, with K-562 leukemia and in the test with UACC-62 melanoma was over 100 µM in each case.
As to `CC#CC(=O)SCCNC(=O)CC`, the TGI with UO-31 renal, with NCI-H226 lung, in the test on 786-0 renal, in the test with SNB-75 CNS, in the test with U251 CNS and in the test with HCT-15 colon was over 10 µM throughout. Also, the TGI in the test on K-562 leukemia is over 10 µM; with UACC-62 melanoma, over 10 µM; in the test on SR leukemia it was over 7.91 µM.
As to `COc1cc(C2C(Cl)C(=O)N2NC(=O)c2ccc(N)cc2)ccc1O` (stereo unspecified), the TGI in the test on UO-31 renal is over 100 µM; in the test with NCI-H226 lung it was over 100 µM; in the test with 786-0 renal, 39.4 µM; with SNB-75 CNS, over 100 µM; with HOP-92 NSCLC it was 52.8 µM; in the test on U251 CNS, 32 µM. The TGI in the test with HCT-15 colon is over 100 µM; in the test on K-562 leukemia, 76.2 µM; with UACC-62 melanoma, over 100 µM.
Regarding `COc1ccc(/C=C2\S/C(=N/Nc3nc(-c4ccccc4)cs3)NC2=O)cc1OC`, the TGI in the test with UO-31 renal stood at 51.7 µM; in the test on 786-0 renal, 93.4 µM; in the test with SNB-75 CNS, 64.4 µM; with HOP-92 NSCLC, 35.2 µM; with U251 CNS, 87.2 µM; with HCT-15 colon it was 69 µM. This compound also had a TGI in the test on UACC-62 melanoma of 74.5 µM.
Turning to `CCCOC(=O)N1CCN(/[N+]([O-])=N/Oc2ccc([N+](=O)[O-])cc2[N+](=O)[O-])CC1`, the GI50 was 3.5 µM in the test with UO-31 renal; 1.46 µM in the test with NCI-H226 lung; 1 µM with 786-0 renal; 18.2 µM in the test with SNB-75 CNS; 2.03 µM in the test with U251 CNS; 2.2 µM in the test with HCT-15 colon. For the same compound, the figures for the GI50 with K-562 leukemia, in the test with UACC-62 melanoma and in the test on SR leukemia were 0.505 µM, 2.26 µM and 0.373 µM, respectively. In addition, the TGI came out at 48.9 µM with UO-31 renal; 4.3 µM in the test with NCI-H226 lung; 2.95 µM in the test with 786-0 renal; 36.1 µM in the test with SNB-75 CNS; 3.96 µM in the test on U251 CNS; 5.65 µM with HCT-15 colon. In addition, the TGI was over 100 µM in the test on K-562 leukemia, 5.59 µM in the test on UACC-62 melanoma and over 100 µM with SR leukemia.
On to `Clc1nc(Cl)c2ncn(C/C=C/COc3cccc(OC/C=C/Cn4cnc5c(Cl)nc(Cl)nc54)c3)c2n1`, for which the GI50 was over 100 µM in the test on UO-31 renal; over 100 µM in the test on NCI-H226 lung; over 100 µM with 786-0 renal; 57.1 µM in the test with SNB-75 CNS; over 100 µM with HOP-92 NSCLC; 65.6 µM in the test with U251 CNS. Further, the GI50 in the test with HCT-15 colon is 57.7 µM; in the test on K-562 leukemia, 29.7 µM; in the test on UACC-62 melanoma, over 100 µM. For the same compound, the TGI in the test on UO-31 renal, with NCI-H226 lung, in the test with 786-0 renal, with SNB-75 CNS, in the test on HOP-92 NSCLC and in the test on U251 CNS was over 100 µM each time. In addition, the TGI with HCT-15 colon, with K-562 leukemia and in the test with UACC-62 melanoma was over 100 µM in each case.
On to `CC(=O)C1C(=O)C(=O)N(c2ccccc2C(C)C)C1=O` (stereo unspecified), for which the TGI in the test with UO-31 renal, with NCI-H226 lung, with 786-0 renal, in the test with SNB-75 CNS, with HOP-92 NSCLC and in the test with U251 CNS was over 100 µM each time. The TGI in the test with HCT-15 colon, in the test with K-562 leukemia and in the test on UACC-62 melanoma was over 100 µM throughout.
As to `C/C(CC(=O)Nc1ccc(Cl)cc1)=N\NC(N)=S`, the TGI with 786-0 renal, with SNB-75 CNS, in the test on HOP-92 NSCLC, with U251 CNS, with K-562 leukemia and in the test on UACC-62 melanoma was over 100 µM each time.
For `COc1ccc(OC)c2c1C(=O)C1CC1(Br)C2=O` (stereo unspecified), the TGI with UO-31 renal, in the test with 786-0 renal, in the test on U251 CNS, in the test with HCT-15 colon, with K-562 leukemia and in the test with UACC-62 melanoma was over 100 µM each time.
